Test results reported in US20260207623A1, “USE OF ESTETROL IN HEPATICALLY IMPAIRED PATIENTS” (ESTETRA SRL, priority 2022, published 2026).

System: post-menopausal women
Experiment: Example 3 (15 mg, 20 mg E4 monohydrate or placebo): weekly frequency of moderate to severe VMS and responder proportions
Assay type: in vivo, human
Description: A further clinical study was designed to evaluate the effect of 15 or 20 mg estetrol (E4) monohydrate, or placebo on the severity and frequency of vasomotor symptoms (VMS) and the safety of E4 20 mg. The inclusion and exclusion criteria as described for Example 2 were maintained for the present Example (i.e. Example 3).
• 1. Mean change in weekly frequency of moderate to severe vasomotor symptoms (VMS) from Baseline to Week 4 (Efficacy Study Part) [Time Frame: Baseline and Week 4]: • The weekly frequency of moderate to severe VMS at Baseline and Week 4 is defined as the total number (sum) of all recorded moderate to severe VMS experienced during the last 7 consecutive days prior randomization for Baseline and at Week 4. Mean change=mean weekly frequency at Week 4-mean weekly frequency at Baseline. • 2. Mean change in weekly frequency of moderate to severe vasomotor symptoms (VMS) from Baseline to Week 12 (Efficacy Study Part) [Time Frame: Baseline and Week 12] • The weekly frequency of moderate to severe VMS at Baseline and Week 12 is defined as the total number (sum) of all recorded moderate to severe VMS experienced during the last 7 consecutive days prior randomization for Baseline and at Week 12. Mean change=mean weekly frequency at Week 12-mean weekly frequency at Baseline. • 3. […]

For `C[C@]12CC[C@@H]3c4ccc(O)cc4CC[C@H]3[C@@H]1[C@@H](O)[C@@H](O)[C@@H]2O` [E4, 1,3,5 (10)-estratrien-3,15alpha, 16alpha, 17beta-tetrol], the “frequency of moderate to severe VMS” value (15 mg and 20 mg vs placebo, weeks 4 and 12 (FIG. 10)) was “significantly decreased” and the “number of women with reduced VMS frequency (at least 50% or 75% reduction) vs placebo” value (FIG. 11) was “higher number of women that experienced a reduced VMS frequency than placebo”.
